By Kd is commonly meant the concentration at which binding is half-saturated. The low end stands for a tighter complex, the high end for a looser complex. As usually defined, the Ki is a measure of affinity in units of concentration, obtained from inhibition or displacement.

Each structure is given as a SMILES string.

The target of assay [1] is T1, GoSLDH (Gluconobacter oxydans, UniProt Q9KWR5).
T1 construct: codon-optimised synthetic gene in pET28a, expressed in E. coli BL21-CodonPlus(DE3)-RIL, purified (His-tag vector)
T1 sequence (Q9KWR5 1-485): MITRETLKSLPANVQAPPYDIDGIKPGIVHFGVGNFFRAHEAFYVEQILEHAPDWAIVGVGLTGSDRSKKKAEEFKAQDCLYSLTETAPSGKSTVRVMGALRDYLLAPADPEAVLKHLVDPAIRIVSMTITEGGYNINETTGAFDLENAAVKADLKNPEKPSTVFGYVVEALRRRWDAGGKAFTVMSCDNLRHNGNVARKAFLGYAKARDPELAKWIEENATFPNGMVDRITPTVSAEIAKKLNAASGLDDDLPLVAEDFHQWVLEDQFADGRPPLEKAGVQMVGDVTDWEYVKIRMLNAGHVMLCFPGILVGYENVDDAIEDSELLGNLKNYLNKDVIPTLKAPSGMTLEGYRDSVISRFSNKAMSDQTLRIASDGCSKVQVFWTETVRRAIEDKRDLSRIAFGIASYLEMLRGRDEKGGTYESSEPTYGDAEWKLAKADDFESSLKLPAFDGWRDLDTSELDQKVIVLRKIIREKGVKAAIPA
Kind of assay: isothermal titration calorimetry. The format is binding. (In general: In ITC the heat of successive injections is recorded.)

Assay [2] addresses T1, GoSLDH. The assay is described as follows: steady-state inhibition kinetics, double-reciprocal plots. The format is biochemical.

As to `NC(=O)C1=CN([C@@H]2O[C@H](COP(=O)(O)OP(=O)(O)OC[C@H]3O[C@@H](n4cnc5c(N)ncnc54)[C@H](OP(=O)(O)O)[C@@H]3O)[C@@H](O)[C@H]2O)C=CC1` [NADPH], the Kd at GoSLDH [1] came to 67.1 µM. The Ki on GoSLDH [2] turned out to be 100 µM.
In the case of `NC(=O)c1ccc[n+]([C@@H]2O[C@H](COP(=O)(O)OP(=O)(O)OC[C@H]3O[C@@H](n4cnc5c(N)ncnc54)[C@H](OP(=O)(O)O)[C@@H]3O)[C@@H](O)[C@H]2O)c1` [NADP^+], binding on GoSLDH [1] was characterised by a dissociation constant (Kd) of 89.3 µM.

These data come from publication PMC6349845, “Overcoming NADPH product inhibition improves D-sorbitol conversion to L-sorbose” (Scientific Reports, 2019).
